Data on 1 substance can be found in patent US7897722B2, “Composition of bone formation with PHSRN-RGD containing oligopeptide” (Seoul National University Industry Foundation, priority 2007, dated 2011).

Assay [1] relates to MG63 cells. Description: Cell adhesion assay on coated culture plates. The format is cell-based, human. Conditions: plates coated with 0.1 μM recombinant oligopeptide; control poly-L-lysine-coated plate; P<0.05. The procedure:
(§1) MG63 cells (Korean Cell Line Bank, KCLB), used in the present invention, which is a human osteosarcoma cell line, were cultured in Dulbecco's modified Eagle's medium (DMEM) containing 10% (v/v) fetal bovine serum and 0.1% (w/v) gentamycin at 37° C., in a humidified 5% CO2 incubator.
24-well plates were coated with 0.1 μM recombinant oligopeptide or poly-L-lysine at a predetermined concentration overnight at 4° C. and blocked with PBS containing 1% (w/v) BSA for 30 min, then rinsed with PBS.
The MG63 cells were serum-starved for 24 hours, harvested in 0.02% (w/v) trypsin, 1 mM EDTA, and resuspended in DMEM. After being washed 3 times with DMEM containing 100 μg/Ml soybean trypsin inhibitor and 1% (w/v) BSA, 5×10^4 MG63 cells in DMEM were plated in each well to culture at 37° C. for 30 min or 1 hour. Suspensions of control cells were maintained in BSA-coated plates at a given time. After 30 min, adherent cells were washed twice with PBS, fixed with 3% (w/v) paraformaldehyde, and stained with 0.25% (w/v) Crystal Violet (Sigma, USA) in 2% (v/v) ethanol/water. After washing with distilled water, the plates were allowed to dry. The absorbancy was measured at 570 nm to represent the mean±SD (standard deviation). Non-specific adhesion was determined using 1% BSA as a negative control group. […]

For assay [2], the system named is MG63 cells. The experiment in a line: ALP (alkaline phosphatase) assay, osteoblastic cell differentiation. Format: cell-based, human. Conditions: 7 days, control poly-L-lysine-coated. The protocol: as §1
In order to determine osteoblastic cell differentiation, ALP (Alkaline phosphatase) activity that implies in vitro bone formation activity, was measured. 5×10^4 MG63 cells were cultured in 0.1 μM recombinant oligopeptide-coated or poly-L-lysine-coated six-well plates for 7 days. Then, they were washed with PBS and lysed in 1.5 M Tris/HCl (pH 10.2) containing 1 mM ZnCl2, 1 mM MgCl2 and 1% (w/v) Triton X-100 at 4° C. for 10 min. After clarifying the cell lysates by centrifugation, the ALP activity was assayed according to the manufacturer's protocol for the ALP assay kit (Sigma, USA).

Take “DPHSRN-SITGTNLTPGYTITVYAVTG-RGD (DPHSRNSITGTNLTPGYTITVYAVTGRGD) [F20]”: the “cell adhesion capacity (absorbance at 570 nm) compared with control plates” value with MG63 cells [1] is 2 fold. The “ALP activity of MG63 cells compared with control plates” value was found to be 2.5 fold in the assay on MG63 cells [2] (0.1 μM oligopeptide-coated plates) and 2.5 times in the assay on MG63 cells [2] (0.1 μM oligopeptide-coated six-well plates, n=3, P<0.05).
